{"source": "patent US10472344B2", "about": "“Factor XIa inhibitors” (MERCK SHARP & DOHME CORP., priority 2015, dated 2019)", "key": {"[1]": {"biological_target": "purified human Factor XIa (Homo sapiens (Human), UniProt P03951)", "sequence (P03951 388-625)": "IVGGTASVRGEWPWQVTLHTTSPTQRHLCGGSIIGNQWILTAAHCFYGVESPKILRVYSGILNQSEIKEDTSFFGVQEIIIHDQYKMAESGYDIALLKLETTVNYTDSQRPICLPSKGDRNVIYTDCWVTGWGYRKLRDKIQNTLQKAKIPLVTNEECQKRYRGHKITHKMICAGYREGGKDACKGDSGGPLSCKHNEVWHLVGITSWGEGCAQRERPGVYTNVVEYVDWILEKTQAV", "sequence (P03951 19-387 partner)": "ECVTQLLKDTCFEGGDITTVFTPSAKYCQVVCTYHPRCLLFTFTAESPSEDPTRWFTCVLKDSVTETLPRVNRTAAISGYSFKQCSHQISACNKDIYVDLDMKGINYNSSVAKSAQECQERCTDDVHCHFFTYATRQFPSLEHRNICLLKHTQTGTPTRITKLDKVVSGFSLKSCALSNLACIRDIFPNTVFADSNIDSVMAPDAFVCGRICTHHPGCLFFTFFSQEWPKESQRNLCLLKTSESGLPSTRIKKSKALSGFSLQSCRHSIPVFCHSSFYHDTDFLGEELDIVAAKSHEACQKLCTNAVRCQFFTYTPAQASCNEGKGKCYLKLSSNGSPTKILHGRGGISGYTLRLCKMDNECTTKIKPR", "assay": "Factor XIa Assay", "type": "biochemical", "details": "fluorogenic substrate Z-Gly-Pro-Arg-AFC, 40 pM enzyme, pH 7.4; read-out: Human FXIa Ki", "protocol": "(§1) The effectiveness of a compound of the present invention as an inhibitor of Coagulation Factor XIa can be determined using a relevant purified serine protease, and an appropriate synthetic substrate. The rate of hydrolysis of the chromogenic or fluorogenic substrate by the relevant serine protease was measured both in the absence and presence of compounds of the present invention. Assays were conducted at room temperature or at 37° C. […] A decrease in the rate of fluorescence change in the presence of inhibitor is indicative of enzyme inhibition. Such methods are known to one skilled in the art. The results of this assay are expressed as the inhibitory constant, Ki.\nFactor XIa determinations were made in 50 mM HEPES buffer at pH 7.4 containing 150 mM NaCl, 5 mM CaCl2, and 0.1% PEG 8000 (polyethylene glycol; JT Baker or Fisher Scientific). Determinations were made using purified human Factor XIa at a final concentration of 40 pM (Sekisui Diagnostics) and he synthetic substrate, Z-Gly-Pro-Arg-AFC, TFA salt (Sigma #C0980) at a concentration of […].\nActivity assays were performed by diluting a stock solution of substrate at least tenfold to a final concentration ≤0.1 Km into a solution containing enzyme or enzyme equilibrated with inhibitor. Times required to achieve equilibration between enzyme and inhibitor were determined in control experiments. Initial velocities of product formation in the absence (V0) or presence of inhibitor (V1) were measured. Assuming competitive inhibition, and that unity is negligible compared Km/[S], [I]/e, and [I]/e (where [S], [I], and e respectively represent the total concentrations, of substrate, inhibitor and enzyme), the equilibrium constant (Ki) for dissociation of the inhibitor from the enzyme can be obtained from the dependence of V0/Vi on [I] shown in the following equation. V0/Vi=1+[I]/Ki"}, "[2]": {"biological_target": "purified Human plasma kallikrein (Homo sapiens (Human), UniProt P03952)", "sequence (P03952 391-638)": "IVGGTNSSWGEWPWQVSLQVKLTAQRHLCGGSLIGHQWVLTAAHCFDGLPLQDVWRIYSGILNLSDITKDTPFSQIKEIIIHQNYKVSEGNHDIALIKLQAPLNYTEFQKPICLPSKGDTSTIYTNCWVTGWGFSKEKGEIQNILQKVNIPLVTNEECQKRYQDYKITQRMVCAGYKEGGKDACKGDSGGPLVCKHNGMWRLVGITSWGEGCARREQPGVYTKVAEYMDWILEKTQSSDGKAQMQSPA", "sequence (P03952 20-390 partner)": "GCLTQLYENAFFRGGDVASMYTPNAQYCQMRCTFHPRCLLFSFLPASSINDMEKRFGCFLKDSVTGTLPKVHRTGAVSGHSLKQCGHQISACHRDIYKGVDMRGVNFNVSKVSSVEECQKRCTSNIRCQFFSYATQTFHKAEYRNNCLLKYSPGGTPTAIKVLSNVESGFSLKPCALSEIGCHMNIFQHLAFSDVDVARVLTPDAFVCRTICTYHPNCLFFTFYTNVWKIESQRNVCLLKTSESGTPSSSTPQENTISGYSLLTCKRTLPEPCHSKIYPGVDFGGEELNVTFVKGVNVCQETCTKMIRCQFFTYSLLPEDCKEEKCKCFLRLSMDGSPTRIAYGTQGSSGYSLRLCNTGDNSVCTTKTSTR", "assay": "Kallikrein Assay", "type": "biochemical", "details": "fluorogenic substrate Acetyl-K-P-R-AFC, 0.5 nM enzyme, pH 7.4; Ki from IC50 by Cheng Prusoff", "protocol": "as §1, with “Kallikrein” for “Coagulation Factor XIa”\nKallikrein determinations were made in 50 mM HEPES buffer at pH 7.4 containing 150 mM NaCl, 5 mM CaCl2, and 0.1% PEG 8000 (polyethylene glycol; Fisher Scientific). Determinations were made using purified Human plasma kallikrein at a final concentration of 0.5 nM (Enzyme Research Laboratories) and the synthetic substrate, Acetyl-K-P-R-AFC (Sigma #C6608) at a concentration of […].\nActivity assays were performed by diluting a stock solution of substrate at least tenfold to a final concentration≤0.2 Km into a solution containing enzyme or enzyme equilibrated with inhibitor. Times required to achieve equilibration between enzyme and inhibitor were determined in control experiments. The reactions were performed under linear progress curve conditions and fluorescence increase measured at 405 Ex/510 Em nm. Values were converted to percent inhibition of the control reaction (after subtracting 100% Inhibition value). IC50 was determined by inflection point from a four parameter logistic curve fit. Ki was calculated using the Cheng Prusoff equation, Ki=IC50/(1+([S]/Km))."}}, "data": [{"smiles": "Nc1n[nH]c2cc(C(=O)N[C@@H](Cc3ccccc3)c3ccc(-c4cc(Cl)ccc4-n4cnnn4)c[n+]3[O-])ccc12", "note": "[Example 1, (S)-2-(1-(3-AMMONIO-1H-INDAZOLE-6-CARBOXAMIDO)-2-PHENYLETHYL)-5-(5-CHLORO-2-(1H-TETRAZOL-1-YL)PHENYL)PYRIDINE 1-OXIDE 2,2,2-TRIFLUOROACETATE]", "values": [{"measurement": "Ki", "setting": "[1]", "result": 0.9, "unit": "nM"}, {"measurement": "Ki", "setting": "[2]", "result": 25, "unit": "nM"}]}, {"smiles": "COC(=O)Nc1ccc(C(=O)N[C@@H](Cc2ccccc2)c2ccc(-c3cc(Cl)ccc3-n3cnnn3)c[n+]2[O-])cc1", "note": "[Example 2, (S)-5-(5-chloro-2-(1H-tetrazol-1-yl)phenyl)-2-(1-(4-((methoxycarbonyl)amino)benzamido)-2-phenylethyl)pyridine 1-oxide]", "values": [{"measurement": "Ki", "setting": "[1]", "result": 3.6, "unit": "nM"}, {"measurement": "Ki", "setting": "[2]", "result": 105, "unit": "nM"}]}, {"smiles": "COC(=O)Nc1cccc(C(=O)NC(Cc2ccccc2)c2ccc(-c3cc(Cl)ccc3-n3cnnn3)c[n+]2[O-])c1", "note": "(stereo not drawn) [Example 3]", "values": [{"measurement": "Ki", "setting": "[1]", "result": 144, "unit": "nM"}]}, {"smiles": "NC(=O)c1ccc(C(=O)N[C@@H](Cc2ccccc2)c2ccc(-c3cc(Cl)ccc3-n3cnnn3)c[n+]2[O-])s1", "note": "[Example 4]", "values": [{"measurement": "Ki", "setting": "[1]", "result": 1.3, "unit": "nM"}, {"measurement": "Ki", "setting": "[2]", "result": 36, "unit": "nM"}]}, {"smiles": "O=C(O)c1ccc(C(=O)NC(Cc2ccccc2)c2ccc(-c3cc(Cl)ccc3-n3cnnn3)c[n+]2[O-])cc1", "note": "(stereo not drawn) [Example 5]", "values": [{"measurement": "Ki", "setting": "[1]", "result": 83, "unit": "nM"}]}, {"smiles": "O=C(O)c1ccc(C(=O)N[C@@H](Cc2ccccc2)c2ccc(-c3cc(Cl)ccc3-n3cnnn3)c[n+]2[O-])s1", "note": "[Example 6]", "values": [{"measurement": "Ki", "setting": "[1]", "result": 6.9, "unit": "nM"}, {"measurement": "Ki", "setting": "[2]", "result": 219, "unit": "nM"}]}, {"smiles": "COCC(=O)Nc1ccc(C(=O)N[C@@H](Cc2ccccc2)c2ccc(-c3cc(Cl)ccc3-n3cnnn3)c[n+]2[O-])cc1", "note": "[Example 7]", "values": [{"measurement": "Ki", "setting": "[1]", "result": 20, "unit": "nM"}, {"measurement": "Ki", "setting": "[2]", "result": 516, "unit": "nM"}]}]}
